Data: patent US20250134851A1 (priority 2021, published 2025)

Legend:
[1] = tested on: hyperhidrosis (hand sweating); parameters: species or system human; settings: in vivo
[2] = tested on: skin wrinkles under the eyes; parameters: species or system human; settings: in vivo
[3] = assay type: physicochemical; settings: pH 7
PC12 cells = assay type: cell-based
[4] = tested on: sweating area of hind paw of ICR mice; settings: mouse, in vivo, 0.8 mg/kg

For COc1cc(O)c2c(=O)c(OC)c(-c3cc(OC)c(OC)c(OC)c3)oc2c1 [Combretol, combretol], the Sweat weight [1] was 56%, the “Reduction of skin wrinkle dermal density (%)” value (“Reduction … (%)” below) [2] was 36% and the Residual amount [3] was <<10%.

In the case of COc1cc(-c2oc3cc(O)cc(O)c3c(=O)c2O)cc(O)c1O [Laricitrin, laricitrin], the Sweat weight [1] is reported as 52%, the “Reduction … (%)” value [2] is reported as 38% and the Residual amount [3] is reported as <<10%.

With O=c1c(O)c(-c2cc(O)c(O)c(O)c2)oc2cc(O)cc(O)c12 [Myricetin, myricetin] the Sweat weight [1] was 55%, the “Reduction … (%)” value [2] was 48% and the Residual amount [3] was <<10%.

For CC(=O)Oc1c(-c2cc(O)c(O)c(O)c2)oc2cc(O)cc(O)c2c1=O [3-Acetyl-Myricetin, 3-acetyl-myricetin], the “inhibition of acetylcholine release” value (PC12 cells) was “inhibit acetylcholine release”, the “sweating area relative to control” value [4] was “improved effect to a degree that the previously reported myricetin derivatives cannot provide” and the Sweat weight [1] was 28%. For the same molecule, the “Reduction … (%)” value [2] was 78% and the Residual amount [3] was “≈100%”.

With COc1cc(-c2oc3cc(O)cc(O)c3c(=O)c2O)cc(OC)c1O [Syringetin, syringetin] the Sweat weight [1] was 53%, the “Reduction … (%)” value [2] was 37% and the Residual amount [3] was <<10%.
